These are literature values, as cited in patent US10912302B2, “Glyphosate salt herbicidal composition” (Monsanto Technology LLC, priority 2004, dated 2021).

The conditions of this data set: 25° C.

The structures appear in SMILES notation.

Regarding `O=C(O)CNCP(=O)(O)O` [Glyphosate, glyphosate], the solubility in water was 1.16 % by weight.
